Values joined by “and” are separate entries in the source; they are usually repeats but may differ in a detail not shown here. Identical values can stand only once. Marks after values point to notes of the source that are not given here. Strand notation (5' to 3'): a small letter for the sugar, then the base; units joined by * are phosphorothioate-linked, units joined directly phosphodiester-linked; [ ] holds rarer units or linkages, { } end groups; capitals alone tell only the bases. [ms] = mesyl phosphoramidate linkage; e = 2'-O-(2-methoxyethyl) (MOE); k = constrained ethyl (cEt); [5mC] = 5-methylcytosine; d = 2'-deoxy (DNA)
What was measured:
human APOE RNA [1] = assay: Activity in APOE C57BL/6NTac-Apoeem7250 knock-in mice, single ICV bolus, 20 weeks (Example 13); type: in vivo; conditions: single ICV bolus 300 μg, 20 weeks post treatment, normalized to mouse Ppia
Protocol: Modified oligonucleotides described above were tested in the APOE C57BL/6NTac-Apoeem7250 knock-in mouse model described above.
APOE C57BL/6NTac-Apoeem7250 knock-in mice were divided into groups of 4 mice each. Each mouse received a single ICV bolus of 300 μg of modified oligonucleotide. A group of 2-4 mice received a single ICV bolus with PBS as a negative control.
Twenty weeks post treatment, mice were sacrificed and RNA was extracted from cortical brain tissue and spinal cord for quantitative real-time RT-PCR analysis of RNA expression of APOE using human primer probe set RTS3073 (described herein above). APOE RNA levels were normalized to mouse Ppia. Mouse Ppia was amplified using primer probe set m_cyclo24 (described herein above). Results are presented as percent human APOE RNA relative to the amount of human APOE RNA in PBS treated animals, (% control). Each experiment is identified in separate tables below.

human APOE RNA [2] = assay: Activity in APOE C57BL/6NTac-Apoeem7250 knock-in mice, single ICV bolus, 16 weeks (Example 12); type: in vivo; conditions: cortex; single ICV bolus 300 μg; 16 weeks post treatment; normalized to mouse Ppia
Method in brief: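 Knock-in mice (3-4 per group) received one ICV bolus of 300 μg oligonucleotide, PBS as control. After 16 weeks, human APOE RNA in cortex and spinal cord measured by RT-qPCR, normalized to mouse Ppia, and reported as % of PBS control.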

human APOE RNA [3] = assay: Activity in APOE C57BL/6NTac-Apoeem7250 knock-in mice, single ICV bolus, 8 weeks (Example 11); type: in vivo; conditions: single ICV bolus 300 μg, 8 weeks post treatment, normalized to mouse Ppia
Method in brief: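 Human APOE knock-in C57BL/6NTac mice given one ICV bolus of 300 μg oligonucleotide; PBS-dosed group as control. At 8 weeks, cortex and spinal cord RNA measured by qRT-PCR (human probe RTS3073), normalized to mouse Ppia, expressed as % of PBS control.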

human APOE RNA [4] = assay: Dose-dependent inhibition of human APOE RNA in HepG2 cells, electroporation, 50,000 cells per well, RT-PCR normalized to GAPDH (Example 4, Tables 8-10); type: cell-based; conditions: HepG2, electroporation, 16-hour treatment
Method in brief: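 HepG2 cells, 50,000 per well, electroporated with modified oligonucleotide at various concentrations. APOE RNA quantified by RT-PCR with human primer probe set RTS3073, normalized to GAPDH. Values are percent APOE RNA relative to untreated control cells.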

human APOE RNA [5] = assay: Activity in APOE C57BL/6NTac-Apoeem7250 knock-in mice, single ICV bolus, 4 weeks (Example 10); type: in vivo; conditions: single ICV bolus 300 μg, 4 weeks post treatment, normalized to mouse Ppia
Method in brief: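 Knock-in mice (2–4 per group) received one 300 μg ICV bolus of oligonucleotide or PBS. After four weeks, human APOE RNA in cortex and spinal cord measured by RT-qPCR (primer probe set RTS3073), normalized to mouse Ppia, expressed as % of PBS controls.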

In the case of “1693144: 6-10-4 MOE gapmer ACTTGGTGAATCTTTATTAA, linkages soosssszzzssssszsss (eA*e[5mC]eTeT*eG*eG*dT*dG[ms]dA[ms]dA[ms]dT*d[5mC]*dT*dT*dT*dA[ms]eT*eT*eA*eA) [compound 1693144]”, the “APOE RNA (% control) Cortex” value (human APOE RNA [1]) is reported as 65 % control, the “APOE RNA (% control) Spinal Cord” value (human APOE RNA [1]) is reported as 71 % control and the “APOE RNA (% control) Cortex” value (human APOE RNA [2]) is reported as 113 % control and 61 % control. The “APOE RNA (% control) Cortex” value (human APOE RNA [3]; cortex) was 67 % control and the “APOE RNA (% control) Spinal Cord” value (human APOE RNA [3]; spinal cord) was 43 % control.
“1757564: mixed MOE/cEt gapmer TTGGTGAATCTTTATTAA, sugar eeeekddddddddkeeke, linkages soossssssssssooss (eT*eTeGeG*kT*dG*dA*dA*dT*d[5mC]*dT*dT*dT*kAeTeT*kA*eA) [compound 1757564]” was tested, and the “APOE RNA (% control) Cortex” value (human APOE RNA [1]) was 95 % control, the “APOE RNA (% control) Spinal Cord” value (human APOE RNA [1]) was 69 % control and the “APOE RNA (% UTC)” value (human APOE RNA [4]; 5 nM) was 91 % UTC. The “APOE RNA (% UTC)” value (human APOE RNA [4]; 13 nM) was 86 % UTC, the “APOE RNA (% UTC)” value (human APOE RNA [4]; 33 nM) was 92 % UTC and the “APOE RNA (% UTC)” value (human APOE RNA [4]; 82 nM) was 93 % UTC. The “APOE RNA (% UTC)” value (human APOE RNA [4]; 205 nM) was 82 % UTC, the “APOE RNA (% UTC)” value (human APOE RNA [4]; 512 nM) was 72 % UTC and the “APOE RNA (% UTC)” value (human APOE RNA [4]; 1,280 nM) was 62 % UTC. The “APOE RNA (% UTC)” value (human APOE RNA [4]; 3,200 nM) was 39 % UTC, the “APOE RNA (% UTC)” value (human APOE RNA [4]; 8,000 nM) was 22 % UTC and the “APOE RNA (% UTC)” value (human APOE RNA [4]; 20,000 nM) was 33 % UTC. The IC50 (human APOE RNA [4]) was 2210 nM.
For “1757565 (eA*e[5mC]eTeTkG*dG*dT*dG*dA*dA*dT*d[5mC]*dT*dT*dT*eAeTeT*eA*eA; antisense) [Compound 1757565]”, the “APOE RNA (% control) Cortex” value (human APOE RNA [1]) was 82‡ % control, the “APOE RNA (% control) Spinal Cord” value (human APOE RNA [1]) was 73‡ % control and the “APOE RNA (% UTC)” value (human APOE RNA [4]; 5 nM) was 95 % UTC. The “APOE RNA (% UTC)” value (human APOE RNA [4]; 13 nM) was 108 % UTC, the “APOE RNA (% UTC)” value (human APOE RNA [4]; 33 nM) was 76 % UTC and the “APOE RNA (% UTC)” value (human APOE RNA [4]; 82 nM) was 84 % UTC. The “APOE RNA (% UTC)” value (human APOE RNA [4]; 205 nM) was 89 % UTC, the “APOE RNA (% UTC)” value (human APOE RNA [4]; 512 nM) was 64 % UTC and the “APOE RNA (% UTC)” value (human APOE RNA [4]; 1,280 nM) was 49 % UTC. For the same substance, the “APOE RNA (% UTC)” value (human APOE RNA [4]; 3,200 nM) was 30 % UTC, the “APOE RNA (% UTC)” value (human APOE RNA [4]; 8,000 nM) was 55 % UTC and the “APOE RNA (% UTC)” value (human APOE RNA [4]; 20,000 nM) was 22 % UTC. It also gave an IC50 (human APOE RNA [4]) of 2130 nM.
For “1757567 (eA*e[5mC]eTeTeG*dG*dT*dG*dA*dA*dT*d[5mC]*dT*dT*dT*kAeTeT*eA*eA; antisense) [Compound 1757567]”, the “APOE RNA (% control) Cortex” value (human APOE RNA [1]) was 80 % control, the “APOE RNA (% control) Spinal Cord” value (human APOE RNA [1]) was 65 % control and the “APOE RNA (% UTC)” value (human APOE RNA [4]; 5 nM) was 103 % UTC. For the same substance, the “APOE RNA (% UTC)” value (human APOE RNA [4]; 13 nM) was 108 % UTC, the “APOE RNA (% UTC)” value (human APOE RNA [4]; 33 nM) was 97 % UTC and the “APOE RNA (% UTC)” value (human APOE RNA [4]; 82 nM) was 91 % UTC. The “APOE RNA (% UTC)” value (human APOE RNA [4]; 205 nM) was 95 % UTC, the “APOE RNA (% UTC)” value (human APOE RNA [4]; 512 nM) was 64 % UTC and the “APOE RNA (% UTC)” value (human APOE RNA [4]; 1,280 nM) was 59 % UTC. The “APOE RNA (% UTC)” value (human APOE RNA [4]; 3,200 nM) was 37 % UTC, the “APOE RNA (% UTC)” value (human APOE RNA [4]; 8,000 nM) was 19 % UTC and the “APOE RNA (% UTC)” value (human APOE RNA [4]; 20,000 nM) was 23 % UTC. For the same substance, the IC50 (human APOE RNA [4]) was 1820 nM.
In the case of “1757568 (eA*e[5mC]eTeTeG*dG*dT*dG*dA*dA*dT*d[5mC]*dT*dT*dT*kAkTeT*eA*eA; antisense) [Compound 1757568]”, the “APOE RNA (% control) Cortex” value (human APOE RNA [1]) is reported as 73 % control, the “APOE RNA (% control) Spinal Cord” value (human APOE RNA [1]) is reported as 58 % control and the “APOE RNA (% UTC)” value (human APOE RNA [4]; 5 nM) is reported as 86 % UTC. For the same substance, the “APOE RNA (% UTC)” value (human APOE RNA [4]; 13 nM) was 87 % UTC, the “APOE RNA (% UTC)” value (human APOE RNA [4]; 33 nM) was 104 % UTC and the “APOE RNA (% UTC)” value (human APOE RNA [4]; 82 nM) was 96 % UTC. For the same substance, the “APOE RNA (% UTC)” value (human APOE RNA [4]; 205 nM) was 93 % UTC, the “APOE RNA (% UTC)” value (human APOE RNA [4]; 512 nM) was 63 % UTC and the “APOE RNA (% UTC)” value (human APOE RNA [4]; 1,280 nM) was 47 % UTC. The “APOE RNA (% UTC)” value (human APOE RNA [4]; 3,200 nM) was 31 % UTC, the “APOE RNA (% UTC)” value (human APOE RNA [4]; 8,000 nM) was 21 % UTC and the “APOE RNA (% UTC)” value (human APOE RNA [4]; 20,000 nM) was 19 % UTC. The IC50 (human APOE RNA [4]) was 1390 nM.
For “1757570 (eA*e[5mC]eTeTkG*dG*dT*dG*dA*dA*dT*d[5mC]*dT*dT*dT*kAkTeT*eA*eA; antisense) [Compound 1757570]”, the “APOE RNA (% control) Cortex” value (human APOE RNA [1]) was 64 % control, the “APOE RNA (% control) Spinal Cord” value (human APOE RNA [1]) was 48 % control and the “APOE RNA (% UTC)” value (human APOE RNA [4]; 5 nM) was 154 % UTC. The “APOE RNA (% UTC)” value (human APOE RNA [4]; 82 nM) was 151 % UTC, the “APOE RNA (% UTC)” value (human APOE RNA [4]; 205 nM) was 62 % UTC and the “APOE RNA (% UTC)” value (human APOE RNA [4]; 512 nM) was 26 % UTC. The “APOE RNA (% UTC)” value (human APOE RNA [4]; 1,280 nM) was 42 % UTC, the “APOE RNA (% UTC)” value (human APOE RNA [4]; 3,200 nM) was 22 % UTC and the “APOE RNA (% UTC)” value (human APOE RNA [4]; 8,000 nM) was 18 % UTC. The “APOE RNA (% UTC)” value (human APOE RNA [4]; 20,000 nM) was 18 % UTC and the IC50 (human APOE RNA [4]) was 580 nM.
“1757573 (eA*e[5mC]eTeT*eG*eG*dT*dG[ms]dA[ms]dA[ms]dT*d[5mC]*dT*dT*dT*dA[ms]kT*eT*eA*eA; antisense) [Compound 1757573]” was tested, and the “APOE RNA (% control) Cortex” value (human APOE RNA [1]) was 61 % control, the “APOE RNA (% control) Spinal Cord” value (human APOE RNA [1]) was 42 % control and the “APOE RNA (% control) Cortex” value (human APOE RNA [5]; cortex) was 53 % control. The “APOE RNA (% control) Spinal Cord” value (human APOE RNA [5]; spinal cord) was 38 % control.

— US20250353873A1, “COMPOUNDS AND METHODS FOR MODULATING APOE EXPRESSION” (Ionis Pharmaceuticals, Inc., priority 2024, published 2025)
